Laboratory results as given in ChEMBL document CHEMBL5154696, “Efficient targeted oncogenic KRASG12C degradation via first reversible-covalent PROTAC” (Eur J Med Chem, 2022).
The source made the active and inactive calls. The rule behind the calls is not given here.

How the values were obtained:
GTPase KRas = GTPase KRas (Homo sapiens, UniProt P01116, G12C); test: Inhibition of KRAS G12C mutant (unknown origin) assessed as inhibition of SOS1-catalyzed nucleotide exchange measured by HTRF assay
A549 = test: Antiproliferative activity against human A549 cells harboring KRAS G12S mutant measured after 72 hrs by CCK-8 assay; type: functional, cell-based; conditions: A549, 72 h
NCI-H23 = test: Antiproliferative activity against human NCI-H23 cells harboring KRAS G12C mutant measured after 72 hrs by CCK-8 assay; type: functional, cell-based; conditions: NCI-H23, 72 h
NCI-H358 = test: Antiproliferative activity against human NCI-H358 cells harboring KRAS G12C mutant measured after 72 hrs by CCK-8 assay; type: functional, cell-based; conditions: NCI-H358, 72 h
[1] = system: GTPase KRas (Homo sapiens), P01116 [G12C]; test: Reversible covalent binding affinity to KRAS G12C mutant (unknown origin) incubated for 2 hrs and measured by MALDI-TOF-MS analysis
[2] = system: von Hippel-Lindau disease tumor suppressor/GTPase KRas (Homo sapiens), P01116+P40337 [G12C]; test: Protac activity at VHL/KRAS G12C mutant in human NCI-H23 cells assessed as induction of KRAS G12C mutant degradation by measuring downregulation of phospho-ERK protein level at 3 uM measured after 24 hrs by Western blot analysis; type: cell-based
[3] = biological target: T1, von Hippel-Lindau disease tumor suppressor/GTPase KRas (Homo sapiens, UniProt P01116+P40337, G12C); test: Protac activity at VHL/KRAS G12C mutant in human NCI-H23 cells assessed as induction of KRAS G12C mutant degradation by measuring downregulation of phospho-ERK protein level measured after 24 hrs by Western blot analysis; type: cell-based
[4] = system: von Hippel-Lindau disease tumor suppressor/GTPase KRas (Homo sapiens), P01116+P40337 [G12C]; test: Protac activity at VHL/KRAS G12C mutant in human NCI-H358 cells assessed as induction of KRAS G12C mutant degradation by measuring downregulation of KRAS G12C protein level at 3 uM measured after 24 hrs by Western blot analysis; type: cell-based
[5] = biological target: T1, von Hippel-Lindau disease tumor suppressor/GTPase KRas; test: Protac activity at VHL/KRAS G12C mutant in human NCI-H23 cells assessed as induction of KRAS G12C mutant degradation by measuring downregulation of KRAS G12C protein level measured after 24 hrs by Western blot analysis; type: cell-based
[6] = biological target: T1, von Hippel-Lindau disease tumor suppressor/GTPase KRas; test: Protac activity at VHL/KRAS G12C mutant in human NCI-H358 cells assessed as induction of KRAS G12C mutant degradation by measuring downregulation of KRAS G12C protein level measured after 24 hrs by Western blot analysis; type: cell-based
[7] = biological target: T1, von Hippel-Lindau disease tumor suppressor/GTPase KRas; test: Protac activity at VHL/KRAS G12C mutant in human NCI-H358 cells assessed as induction of KRAS G12C mutant degradation by measuring downregulation of phospho-ERK protein level measured after 24 hrs by Western blot analysis; type: cell-based
[8] = system: von Hippel-Lindau disease tumor suppressor/GTPase KRas (Homo sapiens), P01116+P40337 [G12C]; test: Protac activity at VHL/KRAS G12C mutant in human NCI-H358 cells assessed as induction of KRAS G12C mutant degradation by measuring downregulation of KRAS G12C protein level at 3 uM in presence of cycloheximide measured after 24 hrs by Western blot analysis; type: cell-based
[9] = system: von Hippel-Lindau disease tumor suppressor/GTPase KRas (Homo sapiens), P01116+P40337 [G12C]; test: Protac activity at VHL/KRAS G12C mutant in human NCI-H358 cells assessed as induction of KRAS G12C mutant degradation by measuring downregulation of phospho-ERK protein level at 3 uM measured after 24 hrs by Western blot analysis; type: cell-based
[10] = system: von Hippel-Lindau disease tumor suppressor/GTPase KRas (Homo sapiens), P01116+P40337 [G12C]; test: Protac activity at VHL/KRAS G12C mutant in human NCI-H23 cells assessed as induction of KRAS G12C mutant degradation by measuring downregulation of KRAS G12C protein level at 3 uM measured after 24 hrs by Western blot analysis; type: cell-based

T1 sequence (P01116 whole entry G12C, stated change not applied): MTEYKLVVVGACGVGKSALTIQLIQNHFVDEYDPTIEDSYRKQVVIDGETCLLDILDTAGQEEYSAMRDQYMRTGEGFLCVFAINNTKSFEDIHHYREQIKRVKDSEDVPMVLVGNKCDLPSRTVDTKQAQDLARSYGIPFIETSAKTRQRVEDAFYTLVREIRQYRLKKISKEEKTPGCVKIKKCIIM
T1 sequence (P40337 whole entry, stated change not applied): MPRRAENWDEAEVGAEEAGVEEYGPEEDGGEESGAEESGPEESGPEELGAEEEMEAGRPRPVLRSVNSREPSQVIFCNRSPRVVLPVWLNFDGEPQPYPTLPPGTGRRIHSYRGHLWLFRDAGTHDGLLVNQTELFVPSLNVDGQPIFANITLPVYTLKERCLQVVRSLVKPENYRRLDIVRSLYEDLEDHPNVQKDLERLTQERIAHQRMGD
Chain of GTPase KRas (P01116 whole entry G12C): as the sequence (P01116 whole entry G12C, stated change not applied) above
Chain of GTPase KRas (Homo sapiens), P01116 [G12C] (P01116 whole entry G12C): as the sequence (P01116 whole entry G12C, stated change not applied) above

SMILES	IC50 (GTPase KRas)	IC50 (A549)	IC50 (NCI-H23)	IC50 (NCI-H358)	Activity [1]	Activity [2]	DC50 [3]	Activity [4]	DC50 [5]	DC50 [6]	DC50 [7]	Activity [8]	Activity [9]	Activity [10]
CC=C(C#N)C(=O)N1CCN(c2nc(OC[C@@H]3CCCN3C)nc3c2CCN(c2cccc4cccc(Cl)c24)C3)C[C@@H]1CC#N	0.0963 µM	8.2 µM	9.55 µM	5.13 µM	–	–	–	–	–	–	–	–	–	–
CN1CCC[C@H]1COc1nc2c(c(N3CCN(C(=O)C(C#N)=CC4CC4)[C@@H](CC#N)C3)n1)CCN(c1cccc3cccc(Cl)c13)C2	0.0254 µM	13.3 µM	5.25 µM	4.7 µM	Active	–	–	–	–	–	–	–	–	–
CCC=C(C#N)C(=O)N1CCN(c2nc(OC[C@@H]3CCCN3C)nc3c2CCN(c2cccc4cccc(Cl)c24)C3)C[C@@H]1CC#N	0.271 µM	25.3 µM	7.4 µM	13.4 µM	–	–	–	–	–	–	–	–	–	–
Cc1ncsc1-c1ccc(CNC(=O)[C@@H]2C[C@@H](O)CN2C(=O)[C@@H](NC(=O)CCOCCCN2CCC[C@H]2COc2nc3c(c(N4CCN(C(=O)/C(C#N)=C/C5CC5)[C@@H](CC#N)C4)n2)CCN(c2cccc4cccc(Cl)c24)C3)C(C)(C)C)cc1	–	–	0.244 µM	0.154 µM	–	Active	1.44 µM	Active	4.53 µM	3.61 µM	1.68 µM	Active	Active	Active
CN1CCC[C@H]1COc1nc2c(c(N3CCN(C(=O)C(C#N)=CC(C)(C)C)[C@@H](CC#N)C3)n1)CCN(c1cccc3cccc(Cl)c13)C2	0.64 µM	16.1 µM	6.33 µM	0.796 µM	–	–	–	–	–	–	–	–	–	–
CC(C)C=C(C#N)C(=O)N1CCN(c2nc(OC[C@@H]3CCCN3C)nc3c2CCN(c2cccc4cccc(Cl)c24)C3)C[C@@H]1CC#N	0.284 µM	50 µM	3.15 µM	13.7 µM	–	–	–	–	–	–	–	–	–	–
C=CC(=O)N1CCN(c2nc(=O)n(-c3c(C)ccnc3C(C)C)c3nc(-c4c(O)cccc4F)c(F)cc23)[C@@H](C)C1 [SOTORASIB]	–	50 µM	0.112 µM	0.0084 µM	–	–	–	–	–	–	–	–	–	–
